Reference: paper PMC8777764, “Design, Synthesis, Biological Evaluation, and Molecular Modeling of 2-Difluoromethylbenzimidazole Derivatives as Potential PI3Kα Inhibitors” (Molecules, 2022)

Biological target: T1, PI3Kα (Homo sapiens, UniProt P42336)
T1 construct: gene PIK3CA
Assay: Kinase-Glo Plus luminescence kinase assay, […] ATP
Type: biochemical

T1 sequence (P42336 whole entry): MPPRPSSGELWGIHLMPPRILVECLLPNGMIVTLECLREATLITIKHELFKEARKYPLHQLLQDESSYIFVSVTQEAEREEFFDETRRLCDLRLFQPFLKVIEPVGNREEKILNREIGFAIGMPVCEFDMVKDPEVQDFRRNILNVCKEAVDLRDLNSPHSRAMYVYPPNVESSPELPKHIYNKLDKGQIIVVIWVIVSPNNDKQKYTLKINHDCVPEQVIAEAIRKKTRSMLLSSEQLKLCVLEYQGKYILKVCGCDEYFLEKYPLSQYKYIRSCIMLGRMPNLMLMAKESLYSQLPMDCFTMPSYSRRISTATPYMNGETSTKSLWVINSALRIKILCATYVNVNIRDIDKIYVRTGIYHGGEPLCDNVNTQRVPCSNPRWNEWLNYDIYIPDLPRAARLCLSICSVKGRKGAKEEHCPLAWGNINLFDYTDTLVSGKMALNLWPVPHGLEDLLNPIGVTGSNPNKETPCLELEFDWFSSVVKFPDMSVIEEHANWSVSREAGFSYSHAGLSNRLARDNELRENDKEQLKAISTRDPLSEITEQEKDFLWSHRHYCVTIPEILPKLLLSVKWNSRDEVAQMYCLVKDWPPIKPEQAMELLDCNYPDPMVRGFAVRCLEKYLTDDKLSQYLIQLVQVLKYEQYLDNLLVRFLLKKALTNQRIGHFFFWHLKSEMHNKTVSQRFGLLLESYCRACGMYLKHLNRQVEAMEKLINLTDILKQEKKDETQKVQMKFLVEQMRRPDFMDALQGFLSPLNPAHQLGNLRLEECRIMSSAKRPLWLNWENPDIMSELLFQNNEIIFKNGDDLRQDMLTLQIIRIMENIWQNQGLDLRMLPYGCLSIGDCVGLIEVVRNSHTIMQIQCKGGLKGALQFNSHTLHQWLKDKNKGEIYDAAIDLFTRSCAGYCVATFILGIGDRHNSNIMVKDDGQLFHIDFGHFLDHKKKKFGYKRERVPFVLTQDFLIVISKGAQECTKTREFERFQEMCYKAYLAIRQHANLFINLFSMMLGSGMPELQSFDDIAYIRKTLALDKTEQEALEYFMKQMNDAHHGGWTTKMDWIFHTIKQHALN

Q: For COc1cccc2c1nc(C(F)(F)F)n2-c1nc(N2CCOCC2)nc(N(C)C2CCN(S(C)(=O)=O)CC2)n1 [compound 86, 4-(4-Methoxy-2-(trifluoromethyl)-1H-benzo[d]imidazol-1-yl)-N-methyl-N-(1-(methylsulfonyl)piperidin-4-yl)-6-morpholino-1,3,5-triazin-2-amine], which IC50 is on record?
A: 0.0228 ± 0.0004 µM

Q: CCOc1cccc2c1nc(C(F)(F)F)n2-c1nc(N2CCOCC2)nc(N(C)C2CCN(S(C)(=O)=O)CC2)n1 [compound 87, 4-(4-Ethoxy-2-(trifluoromethyl)-1H-benzo[d]imidazol-1-yl)-N-methyl-N-(1-(methylsulfonyl)piperidin-4-yl)-6-morpholino-1,3,5-triazin-2-amine] was tested. Which IC50 did it give?
A: 0.0336 ± 0.0027 µM
